Test results taken from PMC3325938, “Activity of Clinically Relevant Antimalarial Drugs on Plasmodium falciparum Mature Gametocytes in an ATP Bioluminescence “Transmission Blocking” Assay” (PLoS ONE, 2012).
In brackets after ≈: the same amount, converted by molar mass. Where two headings read alike, the source gives them in different places.

How the values were obtained:
[1] = test system: P. falciparum asexual forms (3D7A); assay: In vitro antiplasmodial activity on asexual stages (uptake of radiolabeled nucleic acid precursor), 3D7A; assay type: cell-based, Plasmodium falciparum; conditions: read-out: IC50 Activity against asexual forms (3D7A)
Protocol: (§1) IC50 values were measured as previously reported but all of the tests were done with serum-free cultures (using AlbuMAX II)

[2] = test system: gametocytes; conditions: cited from earlier work
[3] = test system: P. falciparum mature gametocytes; assay: Microscopic enumeration of gametocytes on Giemsa-stained smears; assay type: cell-based, Plasmodium falciparum; conditions: read-out: IC50 gametocytes Microscopy examination
Protocol: 100 µl of the culture (day 15, HT 6%) were plated in each well with the appropriate dilution of drug. 48 h after, 10 µl of each well was used to prepare a thin blood film and stain it with Giemsa. The number of gametocytes per 10,000–15,000 RBCs were counted and compared to the control (no drug, 0.5% DMSO).

[4] = test system: gametocytes; design: method as in PMID 17242150; conditions: cited from earlier work
[5] = Cytotoxicity, resazurin-based reductase assay; assay type: cell-based, human; conditions: human, HepG2, 48 h exposure, resazurin, mean ± SD, 3–6 independent experiments
Protocol: (§2) Cells were grown and maintained in EMEM (Sigma-Aldrich) supplemented with 2 mM L-glutamine (Sigma-Aldrich) and 10% fetal calf serum (Perbio). […] For cytotoxicity experiments, cells were seeded onto 96-well clear bottom black plates coated with type I collagen (Biocoat, Becton Dickinson) at a cell density of 10000 cells/well.
(§3) The culture medium was as described above, but supplemented with 5% fetal calf serum. Following the 48 h exposure period, a 0.004% resazurin solution was prepared by adding 60 mL of Dulbecco's PBS to each resazurin tablet (VWR International). The tablet was allowed to dissolve by placing the container in a bath maintained at 37°C, protected from light, for approximately 30 minutes. Medium was removed and 200 µL of fresh culture medium and 50 µL of resazurin solution were added to each well. Plates were incubated for a further 1 ½ hours. Cytotoxicity is indicated by decreased reduction of resazurin to its fluorescent product resorufin. The fluorescence was stabilized at room temperature for 15 minutes protected from light. […] Percentages of inhibition were calculated relative to the control wells.

[6] = test system: P. falciparum asexual forms (3D7HT-GFP); assay: In vitro antiplasmodial activity on asexual stages (uptake of radiolabeled nucleic acid precursor), 3D7HT-GFP; assay type: cell-based, Plasmodium falciparum; conditions: read-out: IC50 Activity against asexual forms (3D7HT-GFP)
Protocol: as §1

[7] = test system: P. falciparum stage IV–V gametocytes (3D7HT-GFP strain); assay: microbe, parasite or virus in culture; assay type: cell-based, Plasmodium falciparum
Protocol: Once purified, gametocytes were counted using a Neubauer chamber. Gametocytes (5×10^4 gametocytes per well) were transferred to a 96-well plate in a final volume of 100 µL, and dilutions of each drug were added (final DMSO concentration 0.5%). Plates were incubated (at 37°C in a 5% CO2 humidified incubator) for 48 h. The ATP level of each well was determined using the BacTiter-Glo™ reagent (Promega) according to manufacturer's recommendations. The BacTiter-Glo™ assay generates a “glow-type” luminescent signal produced by the luciferase reaction, which consists of mono-oxygenation of luciferin catalyzed by luciferase in the presence of Mg2+, ATP, and molecular oxygen.

[8] = test system: HepG2 cells; assay: Cytotoxicity, resazurin-based reductase assay; assay type: cell-based, human
Protocol: as §2, §3

[9] = test system: gametocytes; design: method as in PMID 21316401; conditions: at 1 µM; cited from earlier work
[10] = test system: late gametocytes; design: method as in PMID 20149239; conditions: flow cytometry assay; cited from earlier work
[11] = Plasmodium falciparum, mean ± SD, 3–6 independent experiments, serum-free (AlbuMAX II)
[12] = Plasmodium falciparum, mature gametocytes, 48 h incubation, Giemsa smear counting
[13] = Plasmodium falciparum, 48 h, read-out: IC50 Activity against mature gametocytes IV–V, ATP bioluminescence, 48 h, 3D7HT-GFP, mean ± SD, 3–6 independent experiments
[14] = Plasmodium falciparum, 48 h, read-out: IC50 gametocytes ATP method, mature gametocytes, 48 h drug exposure (Table 1)

Row | SMILES | IC50 [1, 11] | IC50 at 48 h ([5]; HepG2 cells) | IC50 ([6]; Plasmodium falciparum) | IC50 [7, 13] | also measured
1 | C[C@H]1[C@H](OC(=O)CCC(=O)O)O[C@@H]2O[C@@]3(C)CC[C@H]4[C@H](C)CC[C@@H]1[C@@]24OO3 [Artesunate] | 37 ± 25 nM | > 50 µM | 54 ± 30 nM | 10.8 ± 3.7 µM | IC50 on gametocytes [2]: 0.1 ng/mL (≈ 0.26 nM); IC50 [3, 12]: 2260 nM; IC50 [4]: 108 nM; IC50 [7, 14]: 10.8 µM
2 | O=C1C(O)=C([C@H]2CC[C@H](c3ccc(Cl)cc3)CC2)C(=O)c2ccccc21 [Atovaquone] | 0.7 ± 0.4 nM | > 40 µM | 1.8 ± 0.2 nM | 16.1 ± 2.12 µM | cytotoxic effects (in words) ([8]; at the maximum solubility in culture media): No cytotoxic effects were detected
3 | CC[C@H]1OC(=O)[C@H](C)[C@@H](O[C@H]2C[C@@](C)(OC)[C@@H](O)[C@H](C)O2)[C@H](C)[C@@H](O[C@@H]2O[C@H](C)C[C@H](N(C)C)[C@H]2O)[C@](C)(O)C[C@@H](C)CN(C)[C@H](C)[C@@H](O)[C@]1(C)O [Azythromycin] | – | > 50 µM | > 10000 nM | 28.4 ± 0.64 µM | IC50 ([1]; Plasmodium falciparum): > 10000 nM
4 | CCN(CC)CCCC(C)Nc1ccnc2cc(Cl)ccc12 (stereo not drawn) [Chloroquine] | – | – | 7 ± 2 nM | 23.5 ± 2.66 µM | IC50 ([1]; Plasmodium falciparum): 6 ± 0.2 nM; IC50 ([3]; Plasmodium falciparum, 48 h): 28400 nM; IC50 [7, 14]: 23.5 µM
5 | C[C@@H]1C[C@@H]([C@H](O)CC2CC(=O)NC(=O)C2)C(=O)[C@@H](C)C1 [Cycloheximide] | – | – | 194 ± 7.7 nM | – | IC50 ([1]; Plasmodium falciparum): 198 ± 1.7 nM; IC50 at 48 h [5]: 2.95 ± 0.35 µM; IC50 ([7]; Plasmodium falciparum, 48 h, read-out: IC50 Activity against mature gametocytes IV–V): 6.23 ± 2.46 µM
6 | C[C@H]1[C@@H](O)O[C@@H]2O[C@@]3(C)CC[C@H]4[C@H](C)CC[C@@H]1[C@@]24OO3 [Dihydroartemisinin] | 2.8 ± 0.7 nM | > 50 µM | 13 ± 3 nM | 3.56 ± 0.95 µM | IC50 [3, 12]: 2470 nM; inhibition of gametocytes [9]: 70.4%; IC50 [7, 14]: 3.56 µM
7 | CC[C@H](C)[C@H](NC(=O)[C@H]([C@@H](C)CC)N(C)C(C)=O)C(=O)N[C@H](C(=O)N[C@@H](CC(C)C)C(=O)[C@@]1(C)CO1)[C@@H](C)O [Epoxomicin] | – | – | – | – | IC50 [1]: 8 ± 1 nM; IC50 ([3]; mature gametocytes, 48 h incubation, Giemsa smear counting): 5.2 nM; IC50 ([8]; HepG2, 48 h exposure, resazurin, mean ± SD, 3–6 independent experiments): 3 ± 0.5 nM; IC50 ([6]; mean ± SD, 3–6 independent experiments, serum-free (AlbuMAX II)): 9.8 ± 1.7 nM; IC50 ([7]; ATP bioluminescence, 48 h, 3D7HT-GFP, mean ± SD, 3–6 independent experiments, read-out: IC50 Activity against mature gametocytes IV–V): 0.00042 ± 0.00011 µM; IC50 ([7]; mature gametocytes, 48 h drug exposure (Table 1), read-out: IC50 gametocytes ATP method): 0.00042 µM
8 | CCCCN(CCCC)CCC(O)c1cc2c(Cl)cc(Cl)cc2c2cc(C(F)(F)F)ccc12 (stereo not drawn) [Halofantrine] | 1.1 ± 0.5 nM | > 50 µM | 1.2 ± 0.5 nM | 6.7 ± 0.42 µM | –
9 | CCN(CC)Cc1ccc(Nc2ccnc3cc(Cl)ccc23)cc1O [Isoquine] | 9 ± 1.6 nM | 17.1 ± 6.3 µM | 4.4 ± 3.2 nM | 28.5 ± 2.12 µM | –
10 | CCCCN(CCCC)CC(O)c1cc(Cl)cc2c1-c1ccc(Cl)cc1/C2=C/c1ccc(Cl)cc1 (stereo not drawn) [Lumefantrine] | 3.2 ± 0.14 nM | > 50 µM | 1.65 ± 0.07 nM | > 50 µM | –
11 | OC(c1cc(C(F)(F)F)nc2c(C(F)(F)F)cccc12)C1CCCCN1 (stereo not drawn) [Mefloquine] | 26 ± 17 nM | 11 ± 0.26 µM | 28 ± 1.4 nM | 4.9 µM | selectivity ratio (IC50 in HepG2 cells / IC50 in P. falciparum gametocytes) ([8]; HepG2 versus mature gametocytes): 2.34; IC50 ([7]; read-out: IC50 Activity against mature gametocytes IV–V, ATP bioluminescence, 48 h, 3D7HT-GFP, mean ± SD, 3–6 independent experiments): 4.7 ± 2.1 µM
12 | CN(C)c1ccc2nc3ccc(=[N+](C)C)cc-3sc2c1 [Methylene blue] | 11 ± 8 nM | 6.52 ± 1.31 µM | 10 ± 1.8 nM | 0.49 ± 0.16 µM | IC50 [3, 12]: 760 nM; IC50 [7, 14]: 0.49 µM
13 | COc1cc(NC(C)CCCN)c2ncccc2c1 (stereo not drawn) [Primaquine] | > 10000 nM | – | > 10000 nM | 20.9 ± 4.65 µM | IC50 [3, 12]: 87900 nM; IC50 at 48 h [5]: > 50 µM; IC50 [7, 14]: 20.9 µM
14 | CCc1nc(N)nc(N)c1-c1ccc(Cl)cc1 [Pyrimethamine] | – | > 50 µM | 33700 ± 6720 nM | > 50 µM | effect on mature gametocytes (in words) ([7]; 3D7HT-GFP line resistant to drugs acting on DHFR): did not have any effect
15 | COc1ccc2nc3cc(Cl)ccc3c(Nc3cc(CN4CCCC4)c(O)c(CN4CCCC4)c3)c2n1 [Pyronaridine] | 4.5 ± 1.5 nM | 5.95 ± 0.92 µM | 0.8 ± 0.1 nM | ~3.25 µM | –
16 | C=C[C@H]1C[N@@]2CC[C@H]1C[C@H]2[C@H](O)c1ccnc2ccc(OC)cc12 [Quinine] | 66 ± 18 nM | > 50 µM | 106 ± 40 nM | – | –
17 | C[C@@H]1CC[C@H]2[C@@H](C)C(=O)O[C@@H]3O[C@@]4(C)CC[C@@H]1[C@]32OO4 [artemisinin] | – | – | – | – | IC50 [10]: 1000 nM
